Test results from patent publication US6727227B1, “Tetrapetide revealing geroprotective effect, pharmacological substance on its basis, and the method of its application” (Obschestvo S Ogranichennoi Otvetstven-Nostiju “Klinika …, priority 2002, dated 2004).
Marks after values point to notes of the source that are not given here. Residues, ends and D or L forms follow the SMILES beside them.

Columns and labels:
Assay type in all cases: in vivo
[1] = test system: Drosophila melanogaster of HEM strain; assay: Reproductive function: share of live and fertile cultures, HEM strain; parameters: key to Share of cultures, Live: % of initial test tubes containing live females; key to Share of cultures, Fertile: % of live cultures in which posterity was given; conditions: for Share of cultures, Fertile / Share of cultures, Live: 0.00001% of medium weight
Procedure: Influence of L-Ala-L-Glu-L-Asp-Gly tetrapeptide (SEQ ID NO: 1) upon Drosophila melanogaster was tested at the stage of larvae of the 2nd-3rd age, by means of adding the preparation to culture medium in dose 0.00001% of the medium weight, which approximately made 0.015 mg/100 ml. The flies, hatched on the 1st day, were placed into test tubes, 5 couples in each, and transferred to fresh medium every 3 to 6 days.
There have been considered the following factors:
The share of the test tubes (of their initial amount), which contained live females (in Table 3—the share of live cultures).
The share of the test tubes (of the number of live cultures), in which posterity was given (in Table 3—the share of fertile cultures).
In each experimental variant 75 parental couples were analysed. The distinctions between fertility indices were defined by means of Fischer exact criterion for 2×2-adjustment tables (24).

white outbred male mice = assay: Acute toxicity according to Kerber
Procedure: The purpose of the study was to define tolerable toxic doses of the preparation, to estimate the stage and character of pathologic alterations in various organs and systems of the organism, and to identify the correlation between the toxic dose-related effect and the duration of the drug application.
The investigation was carried out on 66 white outbred male mice weighing 20 to 23 g, which were kept under standard regimen and fed upon standard rations in vivarium conditions. The animals were randomly divided into 6 equal groups of 11 mice in each. The animals were exposed to a single administration of the drug intramuscularly, 0.25 ml in doses 1 mg/kg, 2 mg/kg, 3 mg/kg, 4 mg/kg and 5 mg/kg (several thousand times exceeding the therapeutic dose recommended for clinical trial). Control animals were administered the same amount of sodium chloride.

[2] = test system: Drosophila melanogaster of LA strain; assay: Life span and ageing rate, LA strain; conditions: for ALS / Me / LSmax (maximal life span): 0.00001% of medium weight; for LSmax (maximal life span): in days
Excerpt: The impact produced by L-Ala-L-Glu-L-Asp-Gly tetrapeptide (SEQ ID NO: 1) on catalase activity, the content of the products of lipid peroxide oxidation (LPO), life span, and the ageing rate were studied in Drosophila melanogaster of LA strain.
One-day old flies were placed in test tubes, 10 individuals of the same sex in each. Every 2 days they were transferred to a fresh medium taking into consideration the number of deceased individuals. The average and maximal life spans were defined. The ageing rate was calculated by the parameters of Gomperz equation.
L-Ala-L-Glu-L-Asp-Gly tetrapeptide (SEQ ID NO: 1) was applied in the larvae of the 3rd age in dose 0.00001% of the culture medium weight, which constituted approximately 0.015 mg/100 ml. Catalase activity was estimated by generally accepted methods in the homogenates of adult 14 days old flies. The experiment was carried out with a subsequent repetition.
Regression and dispersal analyses served as the basic technique of statistic processing. The authenticity of differences was confirmed by the method of minimal relevant diversity.

[3] = test system: blood anti-oxidation defence indices; assay: Blood anti-oxidation defence indices in patients with age-related pathology; conditions: 10 μg intramuscularly daily for 10 days
Procedure: The studied pharmacological substance was administered to 14 patients (34 to 69 years old) with age-related pathology (hypertension disease, ischemic heart disease, chronic gastritis, non-insulin-dependent diabetes mellitus) and reduction of the anti-oxidation defence indices in blood.
The substance containing L-Ala-L-Glu-L-Asp-Gly tetrapeptide (SEQ ID NO: 1) was administered intramuscularly in the form of an injection solution in a single daily dose of 10 μg per injection for 10 days.

[4] = single intramuscular administration, 1-5 mg/kg

C[C@H](N)C(=O)N[C@@H](CCC(=O)O)C(=O)N[C@@H](CC(=O)O)C(=O)NCC(=O)O [L-Ala-L-Glu-L-Asp-Gly tetrapeptide, L-alanyl-L-glutamyl-L-aspartyl-glycine] (H-AEDG-OH)
Coefficient A of lineal regression, fertile culture share on age (y = B + Ax) ([1]; HEM strain): −2.5 ± 0.37 | Coefficient A of lineal regression, live culture shares on age (y = B + Ax) ([1]; HEM strain): −1.6 ± 0.17 | Coefficient B of lineal regression, fertile culture share on age (y = B + Ax) ([1]; HEM strain): 115 ± 11.4 | Coefficient B of lineal regression, live culture shares on age (y = B + Ax) ([1]; HEM strain): 137 ± 10.6 | Maximal life span attained ([1]; HEM strain): 100 days | “a”-coefficient of fertile-share regression, control higher than experimental variant ([1]; HEM strain): 1.8 times | Average life span ([1]; HEM strain, Table 6): 54 days | Share of live cultures decreases faster than in controls ([1]; HEM strain, regression analysis): 1.5 times | Extension of the reproduction period ([1]; HEM strain, versus control): 1.5 fold | Duration of the reproductive period ([1]; HEM strain, 30 days for cultures not exposed): 47 days | Share of cultures, Fertile ([1]; day 0, HEM strain): 100 + 0.8 | Share of cultures, Fertile ([1]; day 6, HEM strain): 100 + 0.8 | Share of cultures, Fertile ([1]; day 10, HEM strain): 93 ± 6.9 | Share of cultures, Fertile ([1]; day 13, HEM strain): 93 ± 6.9 | Share of cultures, Fertile ([1]; day 19, HEM strain): 86 ± 9.4 | Share of cultures, Fertile ([1]; day 23, HEM strain): 43 ± 13.2 | Share of cultures, Fertile ([1]; day 27, HEM strain): 31 ± 12.9 | Share of cultures, Live ([1]; day 27, HEM strain): 93 ± 6.9 | Share of cultures, Fertile ([1]; day 32, HEM strain): 36 ± 14.5 | Share of cultures, Live ([1]; day 32, HEM strain): 85 ± 10.0 | Share of cultures, Fertile ([1]; day 38, HEM strain): 9 ± 8.7 | Share of cultures, Live ([1]; day 38, HEM strain): 85 ± 10.0 | Share of cultures, Fertile ([1]; day 44, HEM strain): 9 ± 8.7 | Share of cultures, Live ([1]; day 44, HEM strain): 85 ± 10.0 | Share of cultures, Fertile ([1]; day 50, HEM strain): 9 ± 8.7 | Share of cultures, Live ([1]; day 50, HEM strain): 36 ± 12.8 | Share of cultures, Fertile ([1]; day 54, HEM strain): 0 + 0.9 | Share of cultures, Live ([1]; day 54, HEM strain): 36 ± 12.8 | Share of cultures, Fertile ([1]; day 60, HEM strain): 0 + 0.9 | Share of cultures, Live ([1]; day 60, HEM strain): 29 ± 12.1 | Share of cultures, Fertile ([1]; day 66, HEM strain): 0 + 0.9 | Share of cultures, Live ([1]; day 66, HEM strain): 29 ± 12.1 | Share of cultures, Fertile ([1]; day 69, HEM strain): 0 + 0.9 | Share of cultures, Live ([1]; day 69, HEM strain): 21 ± 10.9 | Share of cultures, Fertile ([1]; day 73, HEM strain): 0 + 0.9 | Share of cultures, Live ([1]; day 73, HEM strain): 7 ± 6.9 | Share of cultures, Fertile ([1]; day 76, HEM strain): 0 + 0.9 | Share of cultures, Live ([1]; day 76, HEM strain): 7 ± 6.9 | Share of cultures, Fertile ([1]; day 84, HEM strain): 0 + 0.9 | Share of cultures, Live ([1]; day 84, HEM strain): 7 ± 6.9 | Share of cultures, Fertile ([1]; day 87, HEM strain): 0 + 0.9 | Share of cultures, Live ([1]; day 87, HEM strain): 7 ± 6.9 | Share of cultures, Fertile ([1]; day 100, HEM strain): 0 + 0.9 | Share of cultures, Live ([1]; day 100, HEM strain): 0 + 0.8 | Acute toxic reactions (white outbred male mice; doses several thousand times exceeding the therapeutic one): does not induce acute toxic reactions | Alterations in general state, behaviour, locomotor activity, hair and skin integument, physiological discharges (white outbred male mice; [4]): No alterations | Deaths within 72 hours and in 14 days (white outbred male mice; [4]): none of the animals in either of the groups died | LSmax without taking into consideration intersexual distinctions ([2]; both sexes): notably extended | G 10^2 (parameter of Gomperz equation) ([2]; females): 4.3 ± 0.90 days^−1 | LnR0 (parameter of Gomperz equation) ([2]; females): -3.806 ± 0.2580 day⁻¹ | MRDT ([2]; females): 3.8 | Type of geroprotector (survival rate curves and Gomperz charts) ([2]; females): geroprotector of the 1st type | ALS ([2]; females): 20 ± 1.3 days | Me ([2]; females): 17 days | LSmax (maximal life span) ([2]; females): 44 ± 1.9 | G 10^2 (parameter of Gomperz equation) ([2]; males): 10.9 ± 3.45 days^−1 | LnR0 (parameter of Gomperz equation) ([2]; males): −5.496 ± 0.711 days^1 | MRDT ([2]; males): 2.9 | Type of geroprotector (survival rate curves and Gomperz charts) ([2]; males): geroprotector of the 3rd type | ALS ([2]; males): 24 ± 0.96 days | Me ([2]; males): 28.5 days | LSmax (maximal life span) ([2]; males): 33 ± 0.9 | Activity of superoxide dismutase, After treatment ([3]; before treatment 0.26): 0.61* conv. unit/mg of protein | Products of spontaneous lipid peroxide oxidation: Schiff bases, After treatment ([3]; before treatment 4.6 ± 0.3): 2.9 ± 0.2 μM/l | Products of spontaneous lipid peroxide oxidation: conjugated hydroperoxides, After treatment ([3]; before treatment 7.3 ± 0.6): 2.5 ± 0.2 μM/l
